Active and inactive are the calls of the source. The calls are words filed in the database; no cut-off is given here.
Legend:
SARS-CoV-2 [1] = test: Antiviral activity against SARS-CoV-2 Gamma (P.1) variant infected in human A549 cells harbouring ACE2 pretreated with compound for 1 hr followed by viral infection for 1 hrs and measured after 48 hrs by RT-qPCR analysis; format: functional, organism-based; conditions: Severe acute respiratory syndrome coronavirus 2, time 50.0 hrs
SARS-CoV-2 [2] = test: Antiviral activity against SARS-CoV-2 Delta (B.1.617.2) variant infected in human A549 cells harbouring ACE2 pretreated with compound for 1 hr followed by viral infection for 1 hrs and measured after 48 hrs by RT-qPCR analysis; format: functional, organism-based; conditions: Severe acute respiratory syndrome coronavirus 2, time 50.0 hrs

SMILES: Cc1ccc(NC2CNC2)cc1C(=O)N[C@H](C)c1cccc(-c2ccc(CNC3CCCC3)s2)c1
- Activity (SARS-CoV-2 [1]): Active
- Activity (SARS-CoV-2 [2]): Active
